Where “and” joins values, the source holds several entries; their conditions need not be identical. Identical values can stand only once. Toxic doses and inconclusive results are not listed. Rule for the calls: active = survival T/C of 150% or more; inactive = T/C below 125% in these data.
System: CD2F1 mice, L1210 leukemia ip, survival T/C
Assay: NCI In Vivo Anticancer Drug Screen. Data for tumor model L1210 Leukemia (intraperitoneal) in CD2F1 (CDF1) mice
Details: higher = longer survival
Procedure, shortened: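 Transplantable tumor in mice; compound-treated vs vehicle-treated groups. Read-out = treated/control ratio of the measured endpoint.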

[1] = endpoint: median survival time, dose: 3.12 mg/kg/injection, schedule: Q04DX003 (ip), vehicle: saline
[2] = endpoint: median survival time, dose: 6.25 mg/kg/injection, schedule: Q04DX003 (ip), vehicle: saline
[3] = endpoint: median survival time, dose: 12.5 mg/kg/injection, schedule: Q04DX003 (ip), vehicle: saline
[4] = endpoint: median survival time, dose: 50.0 mg/kg/injection, schedule: Q04DX003 (ip), vehicle: saline
[5] = endpoint: median survival time, dose: 100.0 mg/kg/injection, schedule: Q04DX003 (ip), vehicle: saline
[6] = endpoint: median survival time, dose: 200.0 mg/kg/injection, schedule: Q04DX003 (ip), vehicle: saline
[7] = endpoint: mean survival time, dose: 100.0 mg/kg/injection, schedule: Q04DX003 (ip), vehicle: saline with Tween-80
[8] = endpoint: mean survival time, dose: 200.0 mg/kg/injection, schedule: Q04DX003 (ip), vehicle: saline with Tween-80
[9] = endpoint: mean survival time, dose: 400.0 mg/kg/injection, schedule: Q04DX003 (ip), vehicle: saline with Tween-80
[10] = endpoint: mean survival time, dose: 100.0 mg/kg/injection, schedule: Q01DX009 (ip), vehicle: saline with Tween-80
[11] = endpoint: mean survival time, dose: 200.0 mg/kg/injection, schedule: Q01DX009 (ip), vehicle: saline with Tween-80
[12] = endpoint: mean survival time, dose: 400.0 mg/kg/injection, schedule: Q01DX009 (ip), vehicle: saline with Tween-80
[13] = endpoint: mean survival time, dose: 50.0 mg/kg/injection, schedule: Q01DX009 (ip), vehicle: saline with Tween-80
[14] = endpoint: mean survival time, dose: 6.25 mg/kg/injection, schedule: Q01DX009 (ip), vehicle: saline with Tween-80
[15] = endpoint: mean survival time, dose: 12.5 mg/kg/injection, schedule: Q01DX009 (ip), vehicle: saline with Tween-80
[16] = endpoint: mean survival time, dose: 25.0 mg/kg/injection, schedule: Q01DX009 (ip), vehicle: saline with Tween-80
[17] = endpoint: mean survival time, dose: 100.0 mg/kg/injection, schedule: Q01DX001 (ip), vehicle: saline with Tween-80
[18] = endpoint: mean survival time, dose: 200.0 mg/kg/injection, schedule: Q01DX001 (ip), vehicle: saline with Tween-80
[19] = endpoint: mean survival time, dose: 200.0 mg/kg/injection, schedule: Q01DX001 (ip), vehicle: saline

Measured: T/C

O=S(=O)(O)c1cc2cc(S(=O)(=O)O)c(O)cc2cc1O.[NH-]C1CCCCC1[NH-].[Pt+2]
inactive: [1] 114 % of control and 118 % of control | [2] 118 % of control and 110 % of control | [3] 113 % of control and 112 % of control
active: [4] 158 % of control | [5] 154 % of control and 207 % of control | [6] 229 % of control and 365 % of control

CCSC(C(O)C(O)C(O)C(O)CO)n1cnc2c(SC)ncnc21 (configuration not stated)
inactive: endpoint: mean survival time, dose: 25.0 mg/kg/injection, schedule: Q01DX005 (ip), vehicle: water 89 % of control | endpoint: mean survival time, dose: 50.0 mg/kg/injection, schedule: Q01DX005 (ip), vehicle: water 94 % of control | endpoint: mean survival time, dose: 100.0 mg/kg/injection, schedule: Q01DX005 (ip), vehicle: water 94 % of control | endpoint: mean survival time, dose: 200.0 mg/kg/injection, schedule: Q01DX005 (ip), vehicle: water 94 % of control

O=C(/C=N/O)Nc1ccccc1
inactive: [7] 101 % of control | [8] 100 % of control | [9] 95 % of control

CS(=O)(=O)OC[C@@H](O)[C@@H](O)COS(C)(=O)=O
inactive: endpoint: mean survival time, dose: 100.0 mg/kg/injection, schedule: Q04DX003 (ip), vehicle: saline sonified 94 % of control and 102 % of control | endpoint: mean survival time, dose: 200.0 mg/kg/injection, schedule: Q04DX003 (ip), vehicle: saline sonified 100 % of control and 108 % of control | endpoint: mean survival time, dose: 400.0 mg/kg/injection, schedule: Q04DX003 (ip), vehicle: saline sonified 97 % of control and 100 % of control

CN(C)C(=O)c1ccc[n+](CC(=O)Nc2ccccc2)c1
inactive: endpoint: mean survival time, dose: 100.0 mg/kg/injection, schedule: Q04DX003 (ip), vehicle: saline 103 % of control | endpoint: mean survival time, dose: 200.0 mg/kg/injection, schedule: Q04DX003 (ip), vehicle: saline 101 % of control | endpoint: mean survival time, dose: 400.0 mg/kg/injection, schedule: Q04DX003 (ip), vehicle: saline 103 % of control

COC(=O)C1=C(N)CCc2ccccc21
inactive: [10] 91 % of control | [11] 96 % of control | [12] 96 % of control

CC(=O)SC(Cc1ccccc1)(Cc1ccccc1)SC(C)=O
inactive: [7] 97 % of control | [8] 95 % of control | [9] 100 % of control

O=[N+]([O-])c1cc(S(=O)(=O)c2ccc(N3CCCCC3)c([N+](=O)[O-])c2)ccc1N1CCCCC1
inactive: [10] 91 % of control | [11] 97 % of control | [12] 95 % of control

COc1ccc(/C=N\NC(=O)CCCCCCCCC(=O)N/N=C\c2ccc(OC)c(O)c2)cc1O
inactive: [13] 97 % of control | [10] 97 % of control | [11] 105 % of control

O=C=NC(c1ccccc1)(c1ccccc1)c1ccccc1
inactive: [7] 95 % of control and 99 % of control | [8] 103 % of control and 104 % of control | [9] 97 % of control

CC1=NN(c2ccccc2)C(=O)/C1=C/N(C)C
inactive: endpoint: mean survival time, dose: 3.13 mg/kg/injection, schedule: Q01DX009 (ip), vehicle: saline with Tween-80 103 % of control | [14] 97 % of control | endpoint: mean survival time, dose: 6.25 mg/kg/injection, schedule: Q04DX003 (ip), vehicle: saline with Tween-80 95 % of control | [15] 100 % of control | endpoint: mean survival time, dose: 12.5 mg/kg/injection, schedule: Q04DX003 (ip), vehicle: saline with Tween-80 90 % of control

NC/C(=N\O)c1ccc(-c2ccccc2)cc1
inactive: endpoint: mean survival time, dose: 100.0 mg/kg/injection, schedule: Q01DX001 (ip), vehicle: Klucel (hydroxypropylcellulose) (HPC) 91 % of control | endpoint: mean survival time, dose: 200.0 mg/kg/injection, schedule: Q01DX001 (ip), vehicle: Klucel (hydroxypropylcellulose) (HPC) 91 % of control | endpoint: mean survival time, dose: 400.0 mg/kg/injection, schedule: Q01DX001 (ip), vehicle: Klucel (hydroxypropylcellulose) (HPC) 91 % of control

CN(C)N=Nc1ccc(NC(N)=O)cc1
active: endpoint: mean survival time, dose: 37.5 mg/kg/injection, schedule: Q01DX009 (ip), vehicle: Klucel (hydroxypropylcellulose) (HPC) 158 % of control | [13] 159 % of control
inactive: [14] 108 % of control | endpoint: mean survival time, dose: 6.25 mg/kg/injection, schedule: Q01DX009 (ip), vehicle: saline 118 % of control | [15] 113 % of control | endpoint: mean survival time, dose: 12.5 mg/kg/injection, schedule: Q01DX009 (ip), vehicle: saline 111 % of control | [16] 118 % of control

Cc1ccc(NS(=O)(=O)c2ccc([N+](=O)[O-])cc2)cc1
inactive: [10] 93 % of control | [11] 98 % of control | [12] 105 % of control

CC1=CC(c2ccccc2)(c2ccccc2)c2ccccc21
inactive: [17] 104 % of control | [18] 91 % of control

O=C(O)c1c[nH]c2c(Cl)cccc2c1=O
inactive: endpoint: mean survival time, dose: 100.0 mg/kg/injection, schedule: Q01DX001 (ip), vehicle: saline 102 % of control | [19] 100 % of control

O=C(Nc1ccccc1)Nc1nnnc2ccccc12
inactive: [7] 101 % of control | [8] 90 % of control | [9] 101 % of control

CC1(C)CC(=O)N(Cc2ccccc2)N1C(=O)c1ccccc1
inactive: [17] 113 % of control | [18] 106 % of control | endpoint: mean survival time, dose: 400.0 mg/kg/injection, schedule: Q01DX001 (ip), vehicle: saline with Tween-80 101 % of control

CN(C)c1ccc(N=Nc2ccc(S(=O)(=O)O)cc2)cc1.CN(C)c1ccc(N=Nc2ccc(S(=O)(=O)O)cc2)cc1.O.O.[NH-]C1CCCCC1[NH-].[Pt+2]
inactive: [1] 96 % of control | [2] 106 % of control | [3] 101 % of control | endpoint: median survival time, dose: 25.0 mg/kg/injection, schedule: Q04DX003 (ip), vehicle: saline 100 % of control | [4] 98 % of control | [5] 105 % of control | [6] 115 % of control

O=C(O[Si](Cc1ccccc1)(Cc1ccccc1)Cc1ccccc1)N(CCCl)CCCl
active: [11] 152 % of control
inactive: endpoint: mean survival time, dose: 6.25 mg/kg/injection, schedule: Q01DX009 (ip), vehicle: distilled water + Tween-80 109 % of control | [14] 96 % of control | [15] 103 % of control | endpoint: mean survival time, dose: 25.0 mg/kg/injection, schedule: Q01DX009 (ip), vehicle: distilled water + Tween-80 117 % of control | [16] 111 % of control | [13] 121 % of control | [10] 123 % of control | endpoint: mean survival time, dose: 200.0 mg/kg/injection, schedule: Q01DX009 (ip), vehicle: distilled water + Tween-80 91 % of control

O=P1(NCCCl)OCCCN1CCCl (configuration not stated)
inactive: endpoint: mean survival time, dose: 25.0 mg/kg/injection, schedule: Q01DX001 (ip), vehicle: DMSO 111 % of control | endpoint: mean survival time, dose: 25.0 mg/kg/injection, schedule: Q01DX001 (ip), vehicle: saline 102 % of control | endpoint: mean survival time, dose: 50.0 mg/kg/injection, schedule: Q01DX001 (ip), vehicle: saline 122 % of control | endpoint: median survival time, dose: 500.0 mg/kg/injection, schedule: Q01DX001 (ip), vehicle: water 65 % of control
active: endpoint: mean survival time, dose: 100.0 mg/kg/injection, schedule: Q01DX001 (ip), vehicle: DMSO 153 % of control | endpoint: mean survival time, dose: 200.0 mg/kg/injection, schedule: Q01DX001 (ip), vehicle: DMSO 397 % of control | [19] 170 % of control | endpoint: mean survival time, dose: 400.0 mg/kg/injection, schedule: Q01DX001 (ip), vehicle: DMSO 430 % of control | endpoint: mean survival time, dose: 400.0 mg/kg/injection, schedule: Q01DX001 (ip), vehicle: clinical formulation 416 % of control | endpoint: mean survival time, dose: 400.0 mg/kg/injection, schedule: Q01DX001 (ip), vehicle: saline 326 % of control and 685 % of control | endpoint: mean survival time, dose: 600.0 mg/kg/injection, schedule: Q01DX001 (ip), vehicle: clinical formulation 437 % of control | endpoint: mean survival time, dose: 600.0 mg/kg/injection, schedule: Q01DX001 (ip), vehicle: saline 451 % of control | endpoint: median survival time, dose: 108.0 mg/kg/injection, schedule: Q01DX001 (ip), vehicle: water 155 % of control and 157 % of control | endpoint: median survival time, dose: 180.0 mg/kg/injection, schedule: Q01DX001 (ip), vehicle: water 166 % of control and 173 % of control | endpoint: median survival time, dose: 300.0 mg/kg/injection, schedule: Q01DX001 (ip), vehicle: saline 315 % of control | endpoint: median survival time, dose: 300.0 mg/kg/injection, schedule: Q01DX001 (ip), vehicle: water 200 % of control and 215 % of control | endpoint: median survival time, dose: 300.0 mg/kg/injection, schedule: Q01DX001 (iv), vehicle: saline 223 % of control | endpoint: median survival time, dose: 450.0 mg/kg/injection, schedule: Q01DX001 (ip), vehicle: saline 616 % of control | endpoint: median survival time, dose: 450.0 mg/kg/injection, schedule: Q01DX001 (iv), vehicle: saline 616 % of control
